Read-outs that look alike come from different tables or passages of the source.

A word on the IC50: it is the midpoint of a concentration-inhibition curve.

Format in all cases: biochemical
One experiment has as its target T1, MMP-1 (Homo sapiens, UniProt P03956).
T1 sequence (P03956 100-469): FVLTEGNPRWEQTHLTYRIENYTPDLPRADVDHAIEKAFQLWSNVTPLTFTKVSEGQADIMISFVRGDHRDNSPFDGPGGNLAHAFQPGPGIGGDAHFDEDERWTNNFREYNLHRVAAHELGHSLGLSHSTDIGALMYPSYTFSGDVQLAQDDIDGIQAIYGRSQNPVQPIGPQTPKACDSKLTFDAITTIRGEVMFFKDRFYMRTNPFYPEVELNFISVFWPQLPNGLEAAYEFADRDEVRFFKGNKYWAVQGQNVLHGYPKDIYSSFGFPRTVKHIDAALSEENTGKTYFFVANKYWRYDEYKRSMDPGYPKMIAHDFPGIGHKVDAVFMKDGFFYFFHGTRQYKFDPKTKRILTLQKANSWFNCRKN
As to the kind of experiment: MMP-1 inhibitory action (Type I collagen Activity Measurement kit, FITC-labeled collagen type I).

The next experiment deals with T2, Recombinant Human MMP-13 (Homo sapiens, UniProt P45452).
T2 construct: purchased R&D systems 511-MM
As to the kind of experiment: MMP-13 inhibitory activity (MMP-13 specific fluorescent substrate with quencher). A digest of the protocol: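 IC50 (μM) derived from % inhibition, normalised to wells without enzyme and without inhibitor, fluorescence read at 325/405 nm. Enzyme and compound preceded addition of the quenched 7-MCA…DPA substrate; Tris-HCl buffer, 25 °C for 1 h, acetic-acid stop.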

The target in the next experiment is T3, aggrecanase-1 (Homo sapiens, UniProt O75173).
T3 sequence (O75173 213-837): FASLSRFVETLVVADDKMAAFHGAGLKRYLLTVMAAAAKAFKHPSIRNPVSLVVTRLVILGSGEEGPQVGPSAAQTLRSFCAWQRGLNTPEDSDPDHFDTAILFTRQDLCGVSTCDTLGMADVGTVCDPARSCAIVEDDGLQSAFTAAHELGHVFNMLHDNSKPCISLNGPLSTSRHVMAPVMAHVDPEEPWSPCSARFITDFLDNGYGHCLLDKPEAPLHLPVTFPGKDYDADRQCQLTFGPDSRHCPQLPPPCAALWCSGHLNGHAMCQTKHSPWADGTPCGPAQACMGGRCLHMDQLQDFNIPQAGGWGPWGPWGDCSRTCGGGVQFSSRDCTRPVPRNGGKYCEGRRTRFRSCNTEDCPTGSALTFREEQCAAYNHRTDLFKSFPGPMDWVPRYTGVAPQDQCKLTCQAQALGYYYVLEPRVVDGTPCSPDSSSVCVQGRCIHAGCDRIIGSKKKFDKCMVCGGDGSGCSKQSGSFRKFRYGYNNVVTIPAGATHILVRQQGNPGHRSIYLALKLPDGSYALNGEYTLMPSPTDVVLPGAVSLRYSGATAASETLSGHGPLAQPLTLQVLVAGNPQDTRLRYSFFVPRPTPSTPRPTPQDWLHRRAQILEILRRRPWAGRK
As to the kind of experiment: Aggrecanase-1 inhibitory action (Particle Assay, GAG release from aggrecan-containing polyacrylamide particles). A digest of the protocol:
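Readout was dimethylmethylene blue absorbance (595 nm) of glycosaminoglycan liberated into supernatant, calibrated with whale chondroitin sulfate. Substrate was aggrecan in polyacrylamide particles, digested 15 h at 37° C in Tris-HCl; TC50 (μM) derived from inhibition relative to no-enzyme and no-inhibitor controls.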

The mark [1] stands for this setting: MMP-1 inhibitory action, FITC-labeled collagen type I, 37° C. for 3 hr, read-out: IC50 MMP1 (Experimental Example 2).
[2] abbreviates: Recombinant Human MMP-13, fluorescent substrate, 25° C. for 1 h, read-out: IC50 MMP13 (Experimental Example 3).
The mark [3] stands for this setting: aggrecanase-1 inhibitory action, read-out: IC50 AG1 (Experimental Example 1).
[4] abbreviates: Experimental Example 2, read-out: IC50 MMP1.
The mark [5] stands for this setting: Experimental Example 3, read-out: IC50 MMP13.
[6] abbreviates: Experimental Example 1, read-out: IC50 AG1.

Turning to `O=C(O)C1(NS(=O)(=O)c2ccc(-c3cc(C(F)(F)F)on3)s2)CC1c1ccccc1CCO` (stereo not drawn) [Example 2-240], the IC50 was at least 1000 nM at MMP-1 (setting [1]), under 1000 nM at Recombinant Human MMP-13 (setting [2]) and under 1000 nM at aggrecanase-1 (setting [3]).
In the case of `Cc1cnn(-c2ccc(S(=O)(=O)N[C@@]3(C(=O)O)C[C@@H]3c3ccccc3)s2)c1` [Example 2-241], the values for the IC50 on MMP-1 (setting [1]), at Recombinant Human MMP-13 (setting [2]) and at aggrecanase-1 (setting [3]) were at least 1000 nM, under 100 nM and under 1000 nM, respectively.
For `O=C(OCCc1ccccc1C1CC1(NS(=O)(=O)c1ccc(-c2cc(C(F)(F)F)on2)s1)C(=O)O)N1CCOCC1` (stereo not drawn) [Example 2-242], in that order: at least 1000 nM, under 100 nM and under 100 nM.
The matching figures for `O=C(Cc1ccccc1C1CC1(NS(=O)(=O)c1ccc(-c2cc(C(F)(F)F)on2)s1)C(=O)O)N1CCOCC1` (stereo not drawn) [Example 2-243]: at least 1000 nM, under 100 nM and under 1000 nM.
Take `O=C(O)[C@@]1(NS(=O)(=O)c2ccc3c(c2)Cc2cc(F)ccc2-3)C[C@H]1c1ccccc1` [Example 2-244]: the IC50 at MMP-1 (setting [1]) is at least 10000 nM; on Recombinant Human MMP-13 (setting [2]), under 1000 nM; on aggrecanase-1 (setting [3]), under 1000 nM.
In the case of `O=C(O)C1(NS(=O)(=O)c2ccc(-c3ccc(Cl)cc3)s2)CC1c1ccc(N2CCOCC2)cc1` (stereo not drawn) [Example 2-245], the IC50 on MMP-1 (setting [1]) is at least 10000 nM; at Recombinant Human MMP-13 (setting [2]), under 1000 nM; on aggrecanase-1 (setting [3]) it was at least 1000 nM.
For `CN1CCN(c2ccc(C3CC3(NS(=O)(=O)c3ccc(-c4ccc(Cl)cc4)s3)C(=O)O)cc2)CC1` (stereo not drawn) [Example 2-246], in that order: at least 10000 nM, under 1000 nM and at least 1000 nM.
As to `CN1CCN(c2ccc(C3CC3(NS(=O)(=O)c3ccc(-c4ccc(Cl)cc4)s3)C(=O)O)cc2)CC1` (stereo not drawn) [Example 2-247], the IC50 on MMP-1 (setting [1]), on Recombinant Human MMP-13 (setting [2]) and at aggrecanase-1 (setting [3]) was at least 10000 nM each time.
On to `O=C(O)C1(NS(=O)(=O)c2ccc(-c3cc(C(F)(F)F)on3)s2)CC1(CCCO)c1ccccc1` (stereo not drawn) [Example 2-248], for which the IC50 is at least 1000 nM on MMP-1 (setting [1]), under 1000 nM at Recombinant Human MMP-13 (setting [2]) and under 100 nM on aggrecanase-1 (setting [3]).
With `O=C(O)C1(NS(=O)(=O)c2ccc(-c3ccc(Cl)cc3)s2)CC1(CCCN1CCOCC1)c1ccccc1` (stereo not drawn) [Example 2-249], the IC50 on MMP-1 (setting [1]) was at least 10000 nM; at Recombinant Human MMP-13 (setting [2]), under 1000 nM; at aggrecanase-1 (setting [3]), under 100 nM.
For `O=C(Nc1cccc(C2CC2(NS(=O)(=O)c2ccc(-c3cc(C(F)(F)F)on3)s2)C(=O)O)c1)N1CCOCC1` (stereo not drawn) [Example 2-250], in that order: at least 1000 nM, under 100 nM and under 1000 nM.
For `O=C(Nc1cccc(C2CC2(NS(=O)(=O)c2ccc(-c3ccc(Cl)cc3)s2)C(=O)O)c1)N1CCOCC1` (stereo not drawn) [Example 2-251], in that order: at least 10000 nM, under 1000 nM and under 1000 nM.
As to `O=C(O)C1(NS(=O)(=O)c2ccc(-c3cc(C(F)(F)F)on3)s2)CC1c1ccccc1CCCO` (stereo not drawn) [Example 2-252], the IC50 on MMP-1 (setting [1]) was at least 1000 nM; at Recombinant Human MMP-13 (setting [2]), under 1000 nM; at aggrecanase-1 (setting [3]) it was under 100 nM.
The matching figures for `O=C(OCCCc1ccccc1C1CC1(NS(=O)(=O)c1ccc(-c2cc(C(F)(F)F)on2)s1)C(=O)O)N1CCOCC1` (stereo not drawn) [Example 2-253]: at least 1000 nM, under 100 nM and under 100 nM.
The matching figures for `O=C(OCCCc1ccccc1C1CC1(NS(=O)(=O)c1ccc(-c2cc(C(F)(F)F)on2)s1)C(=O)O)N1CCC[C@H]1CO` (stereo partly drawn) [Example 2-254]: at least 1000 nM, under 100 nM and under 100 nM.
For the compound `O=C(OCCCc1ccccc1C1CC1(NS(=O)(=O)c1ccc(-c2cc(C(F)(F)F)on2)s1)C(=O)O)N1CC[C@@H](O)C1` (stereo partly drawn) [Example 2-255], the results for the IC50 on MMP-1 (setting [1]), on Recombinant Human MMP-13 (setting [2]) and at aggrecanase-1 (setting [3]) were at least 1000 nM, under 100 nM and under 100 nM, respectively.
In the case of `CC1CCN(c2ccc(S(=O)(=O)N[C@@]3(C(=O)O)C[C@@H]3c3ccccc3)s2)CC1` [Example 2-256], the IC50 on MMP-1 (setting [1]) was at least 10000 nM; on Recombinant Human MMP-13 (setting [2]) it was at least 10000 nM; on aggrecanase-1 (setting [3]), at least 1000 nM.
In the case of `O=C(O)C1(NS(=O)(=O)c2ccc(-c3cc(C(F)(F)F)on3)s2)CC1c1cccc(N2CCOCC2)c1` (stereo not drawn) [Example 2-257], the IC50 at MMP-1 (setting [1]) is at least 1000 nM; at Recombinant Human MMP-13 (setting [2]), under 1000 nM; on aggrecanase-1 (setting [3]), under 100 nM.
The matching figures for `O=C(c1cccc(C2CC2(NS(=O)(=O)c2ccc(-c3cc(C(F)(F)F)on3)s2)C(=O)O)c1)N1CCOCC1` (stereo not drawn) [Example 2-258]: at least 1000 nM, under 1000 nM and under 1000 nM.
For `O=C(NCCc1cccc(C2CC2(NS(=O)(=O)c2ccc(-c3cc(C(F)(F)F)on3)s2)C(=O)O)c1)N1CCOCC1` (stereo not drawn) [Example 2-259], in that order: at least 1000 nM, under 100 nM and under 100 nM.
For `O=C(CN1CCOCC1)Nc1cccc(C2CC2(NS(=O)(=O)c2ccc(-c3cc(C(F)(F)F)on3)s2)C(=O)O)c1` (stereo not drawn) [Example 2-260], in that order: at least 1000 nM, under 100 nM and under 1000 nM.
Regarding `O=C(CN1CCOCC1)Nc1cccc(C2CC2(NS(=O)(=O)c2ccc(-c3ccc(Cl)cc3)s2)C(=O)O)c1` (stereo not drawn) [Example 2-261], the IC50 at MMP-1 (setting [1]) was at least 10000 nM; on Recombinant Human MMP-13 (setting [2]) it was under 1000 nM; at aggrecanase-1 (setting [3]), under 1000 nM.
Take `CC1[C@H](c2ccccc2)[C@]1(NS(=O)(=O)c1ccc(-c2ccc(Cl)cc2)s1)C(=O)O` (stereo partly drawn) [Example 2-262]: the IC50 was under 1000 nM at MMP-1 (setting [1]), under 100 nM on Recombinant Human MMP-13 (setting [2]) and under 100 nM on aggrecanase-1 (setting [3]).
As to `O=C(O)C1(NS(=O)(=O)c2ccc(-c3ccc(Cl)cc3)s2)CC1(CCO)c1ccccc1` (stereo not drawn) [Example 2-263], the IC50 on MMP-1 (setting [1]) is at least 1000 nM; on Recombinant Human MMP-13 (setting [2]) it was under 1000 nM; at aggrecanase-1 (setting [3]) it was under 100 nM.
The matching figures for `CC(=O)OCCCC1(c2ccccc2)CC1(NS(=O)(=O)c1ccc(-c2cc(C(F)(F)F)on2)s1)C(=O)O` (stereo not drawn) [Example 2-264]: at least 1000 nM, under 100 nM and under 100 nM.
On to `NCc1ccc(C2CC2(NS(=O)(=O)c2ccc(-c3ccc(Cl)cc3)s2)C(=O)O)cc1` (stereo not drawn) [Example 2-265], for which the figures for the IC50 at MMP-1 (setting [1]), on Recombinant Human MMP-13 (setting [2]) and at aggrecanase-1 (setting [3]) were at least 10000 nM, under 1000 nM and under 1000 nM, respectively.
Consider `CN(C)C(=O)c1ccc(C2CC2(NS(=O)(=O)c2ccc(-c3cc(C(F)(F)F)on3)s2)C(=O)O)cc1` (stereo not drawn) [Example 2-266], for which the values for the IC50 at MMP-1 (setting [1]), at Recombinant Human MMP-13 (setting [2]) and at aggrecanase-1 (setting [3]) were at least 1000 nM, under 1000 nM and under 1000 nM, respectively.
As to `O=C(O)C1(NS(=O)(=O)c2ccc(-c3cc(C(F)(F)F)on3)s2)CC1c1cccc(NS(=O)(=O)N2CCOCC2)c1` (stereo not drawn) [Example 2-267], the IC50 at MMP-1 (setting [4]) is at least 1000 nM; at Recombinant Human MMP-13 (setting [5]), under 100 nM; at aggrecanase-1 (setting [6]) it was under 100 nM.
Turning to `O=C(O)C1(NS(=O)(=O)c2ccc(-c3cc(C(F)(F)F)on3)s2)CC1c1cccc(CCO)c1` (stereo not drawn) [Example 2-268], the IC50 was at least 1000 nM at MMP-1 (setting [4]), under 100 nM on Recombinant Human MMP-13 (setting [5]) and under 100 nM on aggrecanase-1 (setting [6]).
For `O=C(O)C1(NS(=O)(=O)c2ccc(-c3ccc(Cl)cc3)s2)CC1c1cccc(NS(=O)(=O)N2CCOCC2)c1` (stereo not drawn) [Example 2-269], the IC50 at MMP-1 (setting [4]) is at least 1000 nM; at Recombinant Human MMP-13 (setting [5]), under 100 nM; on aggrecanase-1 (setting [6]) it was under 100 nM.

(Values after patent US20080261994A1, “CYCLOPROPANE COMPOUNDS AND PHARMACEUTICAL USE THEREOF” (Japan Tobacco Inc., priority 2003, published 2008).)
